Values quoted from earlier work, collected in patent publication US12251376B2, “Combinations with thiazolidinediones for use in the prevention or treatment of abnormal bone growth” (SERVIZO GALEGO DE SAÚDE (SERGAS), priority 2019, dated 2025).
Values joined by “and” are separate entries in the source; they are usually repeats but may differ in a detail not shown here. Equal entries are not always repeated.

Columns and labels:
abnormal bone growth = conditions: for preventing recurrence of heterotopic ossification after total hip replacement: state of the art
[1] = not given; remark: listed apart in the source
[2] = not given; remark: listed apart in the source

CC(C)Cc1ccc(C(C)C(=O)O)cc1 (centres unmarked) [ibuprofen]
preventing recurrence of heterotopic ossification after total hip replacement (abnormal bone growth): some effect

CC(=O)Oc1ccccc1C(=O)O [aspirin]
preventing recurrence of heterotopic ossification after total hip replacement (abnormal bone growth): some effect

COc1ccc2c(c1)c(CC(=O)O)c(C)n2C(=O)c1ccc(Cl)cc1 [indomethacin]
Bioavailability (oral): total
reduction of abnormal bone growth (clinical data) (abnormal bone growth; 75 mg retard administration): significantly reduce
preventing recurrence of heterotopic ossification after total hip replacement (abnormal bone growth): some effect

CCc1ccc(CCOc2ccc(CC3SC(=O)NC3=O)cc2)nc1 (centres unmarked) [pioglitazone]
solubility [1]: highly insoluble
doses shown safe in clinical trials [2]: up to 180 mg/day
Volume of distribution (in vivo): 0.25 L/kg
Bioavailability (oral): > 80% and ~83%
time of maximum plasma dose after oral administration (oral): 2 h
increase of plasma concentration with dose (tested from 2 mg to 60 mg): Linear increase
